US12220393B2, “Compositions and methods for the treatment of zika viral diseases” (The ProImmune Company LLC, priority 2017, dated 2025)

Assays:
[1] = system: total intracellular glutathione (GSH+GSSG); experiment: Total intracellular glutathione in uninfected Vero cells; type: cell-based, African green monkey (Chlorocebus sp.); details: BSO treatment, initial studies
Description: African green monkey (Chlorocebus sp.) Vero cells, grown to approximately 90-95% confluence (mid-log phase), were treated with and grown in the presence of increasing concentrations of FFAAP for three days. At each time point, medium was discarded and cells were harvested to measure intracellular concentrations of total GSH. All experiments shown were done in triplicate and the data shown are representative data from multiple independent experiments performed. Standard error bars were calculated using MICROSOFT EXCEL and significance assessments were performed using GRAPHPAD PRISM. * indicates a p-value <0.05 and >0.01; ** indicates a p-value <0.01 and >0.001; and *** indicates a p-value <0.001.
Uninfected Vero cells were treated with 0, 2, 4, 6 mM concentrations of free-form amino acid precursors (FFAAP) for 72 hours. Vero cells infected with Zika virus were treated with the above concentration immediately for quantification of virus titers. […]
(§1) Glutathione Precursors and Glutathione Assays. […] Effective blockade was assessed by measurements of intracellular reduced and oxidized glutathione in the presence of inhibitor.
To determine the levels of intracellular glutathione in uninfected cells, FFAAP-treated and untreated cells, we quantified GSH/GSSG levels in each cell line over three days. Growth and viability of the cells were also assessed. […]

[2] = system: total intracellular glutathione; experiment: Total intracellular glutathione in Zika virus infected Vero cells; type: cell-based, African green monkey (Chlorocebus sp.); details: by 48 hours post BSO-treatment
Description: (§2) FIGS. 4A and 4B show effect of FFAAP on total intracellular GSH and Zika virus replication in Zika virus infected Vero cells (ZIKV). Vero cells, grown to approximately 90-95% confluence (mid-log phase), were treated with and grown in the presence of increasing concentrations of FFAAP for 3 days. At each time point, medium was discarded and cells were harvested to measure intracellular concentrations of total GSH. […] All experiments shown were performed in triplicates and the data shown are representative data from multiple independent experiments. Standard error bars were calculated using Microsoft Excel and significance assessments were performed using GRAPHPAD PRISM. * indicates a p-value <0.05 and >0.01; ** indicates a p-value <0.01 and >0.001; and *** indicates a p-value <0.001.
(§3) FIG. 5A-5D show effects of inhibition of glutathione biosynthesis on Zika virus replication in Vero cells. […] Standard error bars were calculated using Microsoft Excel and significance assessments were performed using GRAPHPAD PRISM. * indicates a p-value <0.05 and >0.01; ** indicates a p-value <0.01 and >0.001; and *** indicates a p-value <0.001.
as §1

[3] = system: Zika virus; experiment: Quantification of Zika virus titers in infected JEG-3 cells; type: cell-based; details: BSO 200 μM
Description: (§4) FIGS. 6A-6D show effects of inhibition of glutathione biosynthesis on Zika virus replication in JEG-3 cells. […] All experiments were performed in triplicates and the data shown are representative data from multiple independent experiments. Standard error bars were calculated using Microsoft Excel and significance assessments were performed using GRAPHPAD PRISM. * indicates a p-value <0.05 and >0.01; ** indicates a p-value <0.01 and >0.001; and *** indicates a p-value <0.001.
FFAAP treatment of cells. […] Cells infected with Zika virus were treated with the above concentration 1.5 hours post adsorption for quantification of virus titers. For plaque enumeration assay cells were treated with FFAAP at the time of adsorption and the treatment was continued for 3 days in semi-solid medium. For these assays the final concentrations in the cell culture medium of the infected and uninfected cells were 0, 2.5, 5.0, and 10 mM FFAAP from solubilized stock solution prepared for FFAAP. Inhibitory concentration (IC50) was used as per definitions provided by GRAPHPAD Software) to evaluate dose-response curves.
Approximately 95% sub-confluent Vero cells or JEG-3 cells were infected Zika in a 48-well plate. After 1.5 hours post-adsorption (HPA), virus inoculum was removed and media with or without FFAAP was added to the respective wells. […]

[4] = system: intracellular glutathione; experiment: Intracellular glutathione in JEG-3 cells; type: cell-based, human
Description: as §4
FIGS. 7A-F show total intracellular GSH concentrations in various cells that were treated with BSO, FFAAP, and a combination of BSO and FFAAP at day 0 and day 2. FIGS. 7A-7C show intracellular GSH concentration in African green monkey (Chlorocebus sp.) Vero cells. […]
Glutathione Precursors and Glutathione Assays. […] Intracellular glutathione levels (GSSG/GSH) were measured to quantify the levels of newly biosynthesized intracellular glutathione with molar quantities calculated using standard curves prepared with reduced and oxidized glutathione (Enzo Life Sciences, Farmingdale, NY), Standard error of the mean (SEM) was calculated using values from triplicate samples and coefficient of variance was calculated within each sample for each specific treatment group. […] Effective blockade was assessed by measurements of intracellular reduced and oxidized glutathione in the presence of inhibitor.

[5] = system: Zika virus; experiment: Quantification of Zika virus titers in infected Vero cells; type: cell-based; details: BSO 200 μM, MOI 0.1
Description: as §2, §3
FFAAP treatment of cells. […] Cells infected with Zika virus were treated with the above concentration 1.5 hours post adsorption for quantification of virus titers. […]

With CCCCS(=N)(=O)CC[C@H](N)C(=O)O (stereo partly drawn) [BSO, buthionine-(S,R)-sulfoximine] the intracellular glutathione levels [1] was “undetectable levels”, the “intracellular levels of glutathione” value [2] was “undetectable” and the “Zika virus replication on blockage of glutathione biosynthesis” value [3] was “inhibition of Zika virus replication”. For the same compound, the intracellular glutathione levels ([4]; JEG-3 cells, BSO treatment, initial studies) was “undetectable levels”, the “intracellular GSH synthesis” value ([4]; Zika virus infected JEG-3 cells) was “blocked intracellular GSH synthesis” and the “Zika virus replication in Vero cells treated with BSO” value [5] was “Zika virus replicates even in Vero cells treated with BSO”.
